Measured values published in PubChem BioAssay AID1963974 (Molecular Pharmacology Branch, DTP, NCI, 2024).

Tested on: 648629-189-R-J1-PDC spheroids with HUVEC/MSC, viability
Assay: Anticancer human tumor 648629-189-R-J1-PDC patient-derived bladder carcinoma cell line growth inhibition [PI3K]
Conditions: for viability, T/C: stronger effect = lower value
Method in brief: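 Viability of mixed-cell spheroids was determined after exposure to pairwise combinations, one partner being inavolisib, alpelisib, duvelisib or copanlisib. Highest tested concentration matched clinical Cmax where known and 10 microM where not, descending in half-log steps.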

[1] = curve of first compound, second compound 0.00316 µM
[2] = curve of first compound, second compound 0.01 µM
[3] = curve of first compound, second compound 0.0316 µM
[4] = curve of first compound, second compound 0.1 µM
[5] = curve of first compound, second compound 0.316 µM
[6] = curve of first compound, second compound 1 µM
[7] = second compound 0.00316 µM, first compound 0.0316 µM
[8] = second compound 0.00316 µM, first compound 0.1 µM
[9] = second compound 0.00316 µM, first compound 0.316 µM
[10] = second compound 0.00316 µM, first compound 1 µM
[11] = second compound 0.00316 µM, first compound 3.16 µM
[12] = second compound 0.00316 µM, first compound 10 µM
[13] = second compound 0.01 µM, first compound 0.0316 µM
[14] = second compound 0.01 µM, first compound 0.1 µM
[15] = second compound 0.01 µM, first compound 0.316 µM
[16] = second compound 0.01 µM, first compound 1 µM
[17] = second compound 0.01 µM, first compound 3.16 µM
[18] = second compound 0.01 µM, first compound 10 µM
[19] = second compound 0.0316 µM, first compound 0.0316 µM
[20] = second compound 0.0316 µM, first compound 0.1 µM
[21] = second compound 0.0316 µM, first compound 0.316 µM
[22] = second compound 0.0316 µM, first compound 1 µM
[23] = second compound 0.0316 µM, first compound 3.16 µM
[24] = second compound 0.0316 µM, first compound 10 µM
[25] = second compound 0.1 µM, first compound 0.0316 µM
[26] = second compound 0.1 µM, first compound 0.1 µM
[27] = second compound 0.1 µM, first compound 0.316 µM
[28] = second compound 0.1 µM, first compound 1 µM
[29] = second compound 0.1 µM, first compound 3.16 µM
[30] = second compound 0.1 µM, first compound 10 µM
[31] = second compound 0.316 µM, first compound 0.0316 µM
[32] = second compound 0.316 µM, first compound 0.1 µM
[33] = second compound 0.316 µM, first compound 0.316 µM
[34] = second compound 0.316 µM, first compound 1 µM
[35] = second compound 0.316 µM, first compound 3.16 µM
[36] = second compound 0.316 µM, first compound 10 µM
[37] = second compound 1 µM, first compound 0.0316 µM
[38] = second compound 1 µM, first compound 0.1 µM
[39] = second compound 1 µM, first compound 0.316 µM
[40] = second compound 1 µM, first compound 1 µM
[41] = second compound 1 µM, first compound 3.16 µM
[42] = second compound 1 µM, first compound 10 µM
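Further: spheroids exposed to agents for seven days before reading.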
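Wherever viability, T/C is given: percent of vehicle control luminescence where 100% = DMSO treated spheroids.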

Compound `CC(C)NCC(C(=O)N1CCN(c2ncnc3c2C(C)CC3O)CC1)c1ccc(Cl)cc1` (stereo not given) + CC(Nc1ccc2c(c1)OCCn1cc(N3C(=O)OCC3C(F)F)nc1-2)C(N)=O has an IC50 [1] of 1280 nM, an IC50 [2] of 1010 nM and an IC50 [3] of 870 nM. The IC50 [4] was 1150 nM, the IC50 [5] was 645 nM and the IC50 [6] was 437 nM. The viability, T/C [7] was 110%, the viability, T/C [8] was 97.4% and the viability, T/C [9] was 91.8%. It also gave a viability, T/C [10] of 54.9%, a viability, T/C [11] of 27.3% and a viability, T/C [12] of 13.5%. For the same compound, the viability, T/C [13] was 95.5%, the viability, T/C [14] was 105% and the viability, T/C [15] was 81%. The viability, T/C [16] was 50.2%, the viability, T/C [17] was 26.8% and the viability, T/C [18] was 16.2%. It also gave a viability, T/C [19] of 90.1%, a viability, T/C [20] of 99.3% and a viability, T/C [21] of 77.7%. The viability, T/C [22] was 44.5%, the viability, T/C [23] was 27.1% and the viability, T/C [24] was 14%. For the same compound, the viability, T/C [25] was 82.7%, the viability, T/C [26] was 80.7% and the viability, T/C [27] was 78.2%. The viability, T/C [28] was 52.4%, the viability, T/C [29] was 25.3% and the viability, T/C [30] was 13.6%. For the same compound, the viability, T/C [31] was 83.1%, the viability, T/C [32] was 75.6% and the viability, T/C [33] was 63.8%. For the same compound, the viability, T/C [34] was 41.3%, the viability, T/C [35] was 24.6% and the viability, T/C [36] was 14.2%. For the same compound, the viability, T/C [37] was 65.2%, the viability, T/C [38] was 67.8% and the viability, T/C [39] was 56.6%. For the same compound, the viability, T/C [40] was 32.2%, the viability, T/C [41] was 19% and the viability, T/C [42] was 12.6%.
With `Cn1ncnc1[C@H]1c2n[nH]c(=O)c3cc(F)cc(c23)N[C@@H]1c1ccc(F)cc1` the viability, T/C (compound 0.000316 µM) was 105% [middle of 4 runs], the viability, T/C (compound 0.001 µM) was 105% [middle of 4 runs] and the viability, T/C (compound 0.00316 µM) was 101% [middle of 4 runs]. The viability, T/C (compound 0.01 µM) was 92.9% [middle of 4 runs], the viability, T/C (compound 0.0316 µM) was 73.1% [middle of 4 runs] and the viability, T/C (compound 0.1 µM) was 63.2% [middle of 4 runs]. For the same compound, the IC50 (curve of compound) was > 100 nM.
`CC(C)n1nc(-c2ccc3oc(N)nc3c2)c2c(N)ncnc21` was tested, and the viability, T/C (compound 0.000316 µM) was 111% [middle of 4 runs], the viability, T/C (compound 0.001 µM) was 102% [middle of 4 runs] and the viability, T/C (compound 0.00316 µM) was 97.9% [middle of 4 runs]. The viability, T/C (compound 0.01 µM) was 89.7% [middle of 4 runs], the viability, T/C (compound 0.0316 µM) was 78.6% [middle of 4 runs] and the viability, T/C (compound 0.1 µM) was 34% [middle of 4 runs]. For the same compound, the IC50 (curve of compound) was 63.4 nM [middle of 4 runs].
With `Cn1nccc1Nc1nccc(-c2ccn(C(CO)c3ccc(Cl)c(F)c3)c(=O)c2)n1` (stereo not given) the viability, T/C (compound 0.0316 µM) was 107% [middle of 4 runs], the viability, T/C (compound 0.1 µM) was 104% [middle of 4 runs] and the viability, T/C (compound 0.316 µM) was 112% [middle of 4 runs]. For the same compound, the viability, T/C (compound 1 µM) was 110% [middle of 4 runs], the viability, T/C (compound 3.16 µM) was 110% [middle of 4 runs] and the viability, T/C (compound 10 µM) was 81.2% [middle of 4 runs]. For the same compound, the IC50 (curve of compound) was > 10000 nM.
With `CC1(C)CCC(Nc2ncc(C(F)(F)F)c(-c3c[nH]c4c(P(C)(C)=O)c(C#N)ccc34)n2)CN1` (stereo not given) + COc1c(OCCCN2CCOCC2)ccc2c3n(c(=NC(=O)c4cnc(N)nc4)nc12)CCN3 the IC50 [1] was < 31.6 nM, the IC50 [2] was < 31.6 nM and the IC50 [3] was < 31.6 nM. The IC50 [4] was < 31.6 nM, the IC50 [5] was < 31.6 nM and the IC50 [6] was < 31.6 nM. The viability, T/C [7] was 25.2%, the viability, T/C [8] was 25.7% and the viability, T/C [9] was 31.6%. For the same compound, the viability, T/C [10] was 31.4%, the viability, T/C [11] was 41.1% and the viability, T/C [12] was 4.79%. It also gave a viability, T/C [13] of 28.9%, a viability, T/C [14] of 25.2% and a viability, T/C [15] of 25.1%. For the same compound, the viability, T/C [16] was 30.8%, the viability, T/C [17] was 35.1% and the viability, T/C [18] was 3.26%. The viability, T/C [19] was 26.3%, the viability, T/C [20] was 23.6% and the viability, T/C [21] was 26.5%. The viability, T/C [22] was 27.7%, the viability, T/C [23] was 31% and the viability, T/C [24] was 9.93%. The viability, T/C [25] was 22%, the viability, T/C [26] was 22.2% and the viability, T/C [27] was 19.9%. It also gave a viability, T/C [28] of 21.8%, a viability, T/C [29] of 21% and a viability, T/C [30] of 1.86%. The viability, T/C [31] was 15.5%, the viability, T/C [32] was 13.7% and the viability, T/C [33] was 13.2%. The viability, T/C [34] was 16.3%, the viability, T/C [35] was 12.5% and the viability, T/C [36] was 1.02%. For the same compound, the viability, T/C [37] was 6.13%, the viability, T/C [38] was 5.76% and the viability, T/C [39] was 6.72%. The viability, T/C [40] was 8.34%, the viability, T/C [41] was 7.64% and the viability, T/C [42] was 1.32%.
